Columns and labels:
waterhemp = assay: Test E preemergence; type: in vivo, Amaranthus rudis; details: for Waterhemp plant response rating: scale 0 to 100 (0 no effect, 100 complete control); for Plant response rating, Waterhemp: scale 0 to 100, 0 no effect, 100 complete control
Method in brief: (§1)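 Test chemicals formulated in a non-phytotoxic solvent mixture containing a surfactant were applied preemergence to seeds in silt loam soil or postemergence to plants at the 1- to 4-leaf stage in potting mix. After 14 to 21 days in a greenhouse, injury was visually rated against controls on a 0-100 scale (0 = no effect, 100 = complete control).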

Italian ryegrass = assay: Test A postemergence; type: in vivo, Lolium multiflorum
Method in brief: (§2)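 Pre- and postemergence greenhouse screen. Soil: loam + sand. Spray carrier: solvent mixture, non-phytotoxic, with surfactant. Post timing at 1–2 leaves, height 2–10 cm. Readout: visual injury on a 0–100 scale roughly 10 days after application, untreated plants as reference.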

kochia [1] = assay: Test A postemergence; type: in vivo, Kochia scoparia
Method in brief: as §2

field bindweed = assay: Test E preemergence; type: in vivo, Convolvulus arvensis; details: for Field Bindweed plant response rating: scale 0 to 100 (0 no effect, 100 complete control); for Plant response rating, Field Bindweed: scale 0 to 100, 0 no effect, 100 complete control
Method in brief: as §1

nightshade = assay: Test E preemergence; type: in vivo, Solanum ptycanthum; details: for Nightshade plant response rating: scale 0 to 100 (0 no effect, 100 complete control); for Plant response rating, Nightshade: scale 0 to 100, 0 no effect, 100 complete control
Method in brief: as §1

giant foxtail = assay: Test E preemergence; type: in vivo, Setaria faberii; details: for Foxtail, Giant plant response rating: scale 0 to 100 (0 no effect, 100 complete control); for Plant response rating, Foxtail, Giant: scale 0 to 100, 0 no effect, 100 complete control
Method in brief: as §1

kochia [2] = assay: Test A preemergence; type: in vivo, Kochia scoparia; details: for Plant response rating, Kochia: 0 to 100 scale where 0 is no effect and 100 is complete control; for Kochia plant response rating: 500 g ai/ha, 0 to 100 scale, 0 no effect, 100 complete control, approx. 10 days
Method in brief: as §2

hairy beggarticks = assay: Test E preemergence; type: in vivo, Bidens pilosa; details: for Beggarticks plant response rating: scale 0 to 100 (0 no effect, 100 complete control); for Plant response rating, Beggarticks: scale 0 to 100, 0 no effect, 100 complete control
Method in brief: as §1

surinam grass = assay: Test E preemergence; type: in vivo, Brachiaria decumbens; details: for Surinam Grass plant response rating: scale 0 to 100 (0 no effect, 100 complete control); for Plant response rating, Surinam Grass: scale 0 to 100, 0 no effect, 100 complete control
Method in brief: as §1

[3] = 31 g ai/ha, 0 to 100 scale, 0 no effect, 100 complete control
[4] = 125 g ai/ha, 0 to 100 scale, 0 no effect, 100 complete control
[5] = 31 g ai/ha, visual, approximately 10 days
[6] = 125 g ai/ha, 0 to 100 scale where 0 is no effect and 100 is complete control
[7] = 500 g ai/ha, 0 to 100 scale where 0 is no effect and 100 is complete control

Compound | Waterhemp plant response rating (waterhemp; 31 g ai/ha) | Waterhemp plant response rating (waterhemp; 62 g ai/ha) | Plant response rating, Waterhemp (waterhemp; 125 g ai/ha) | Field Bindweed plant response rating (field bindweed; 16 g ai/ha) | Field Bindweed plant response rating (field bindweed; 31 g ai/ha) | Field Bindweed plant response rating (field bindweed; 62 g ai/ha) | Plant response rating, Field Bindweed (field bindweed; 125 g ai/ha) | Nightshade plant response rating (nightshade; 31 g ai/ha) | Nightshade plant response rating (nightshade; 62 g ai/ha) | Plant response rating, Nightshade (nightshade; 125 g ai/ha) | Foxtail, Giant plant response rating (giant foxtail; 16 g ai/ha) | Foxtail, Giant plant response rating (giant foxtail; 31 g ai/ha) | Foxtail, Giant plant response rating (giant foxtail; 62 g ai/ha) | Plant response rating, Foxtail, Giant (giant foxtail; 125 g ai/ha) | Beggarticks plant response rating (hairy beggarticks; 16 g ai/ha, preemergence) | Beggarticks plant response rating (hairy beggarticks; 31 g ai/ha, preemergence) | Plant response rating, Beggarticks (hairy beggarticks; preemergence, 125 g ai/ha) | Surinam Grass plant response rating (surinam grass; 31 g ai/ha) | Surinam Grass plant response rating (surinam grass; 62 g ai/ha) | Plant response rating, Surinam Grass (surinam grass; 125 g ai/ha) | other results
FCc1cccc(Oc2ncc(Cl)cn2)c1-n1cc(Cl)cn1 [Compound 250] | 0 | 0 | 100 | 0 | 0 | 0 | 0 | 0 | 35 | 98 | 0 | 0 | 15 | 98 | 0 | 0 | 20 | 0 | 0 | 0 | Plant response rating, Ryegrass, Italian (Italian ryegrass; [3]): 0; Plant response rating, Ryegrass, Italian (Italian ryegrass; [4]): 0; Plant response rating, Kochia (kochia [1]; [3]): 60; Plant response rating, Kochia (kochia [1]; [4]): 90; Plant response rating, Kochia (kochia [2]; [5]): 90; Kochia plant response rating (0 to 100 scale) (kochia [2]; 125 g ai/ha): 0; Beggarticks plant response rating (hairy beggarticks; 62 g ai/ha, preemergence): 0
N#Cc1cccc(Oc2ncc(Br)cn2)c1-n1cc(I)cn1 [Compound 88] | 35 | 35 | 100 | 0 | 0 | 0 | 50 | 0 | – | 0 | 0 | 0 | 0 | 25 | 0 | 0 | 0 | 0 | 0 | 10 | Waterhemp plant response rating (waterhemp; 16 g ai/ha): 20; Plant response rating, Ryegrass, Italian (Italian ryegrass; [6]): 50; Plant response rating, Ryegrass, Italian (Italian ryegrass; [7]): 90; Plant response rating, Kochia (kochia [1]; [6]): 80; Plant response rating, Kochia (kochia [1]; [7]): 100; Plant response rating, Kochia (kochia [2]; 125 g ai/ha): 100; Kochia plant response rating (kochia [2]): 100; Plant response rating, Beggarticks (hairy beggarticks; Preemergence, 62 g ai/ha): 0; Surinam Grass plant response rating (surinam grass; 16 g ai/ha): 0
CCOc1cnn(-c2c(C#N)cccc2Oc2ncc(F)cn2)c1 [Compound 89] | 0 | 70 | 80 | – | 35 | 75 | 95 | – | 80 | 100 | – | 0 | 20 | 65 | – | 35 | 80 | 0 | 0 | 10 | Plant response rating, Waterhemp (waterhemp; 250 g ai/ha): 100; Plant response rating, Ryegrass, Italian (Italian ryegrass; [6]): 0; Plant response rating, Ryegrass, Italian (Italian ryegrass; [7]): 90; Plant response rating, Kochia (kochia [1]; [6]): 80; Plant response rating, Kochia (kochia [1]; [7]): 90; Plant response rating, Field Bindweed (field bindweed; 250 g ai/ha): 90; Plant response rating, Nightshade (nightshade; 250 g ai/ha): 100; Plant response rating, Foxtail, Giant (giant foxtail; 250 g ai/ha): 100; Plant response rating, Kochia (kochia [2]; 125 g ai/ha): 90; Kochia plant response rating (kochia [2]): 100; Plant response rating, Beggarticks (hairy beggarticks; Preemergence, 62 g ai/ha): 60; Plant response rating, Beggarticks (hairy beggarticks; preemergence, 250 g ai/ha): 95; Plant response rating, Surinam Grass (surinam grass; 250 g ai/ha): 75
N#Cc1cccc(Oc2ncc(F)cn2)c1-n1cc(I)cn1 [Compound 86] | 70 | 100 | 100 | 0 | 10 | 20 | 90 | 0 | 0 | 98 | 0 | 15 | 30 | 100 | 0 | 0 | 70 | 0 | 0 | 0 | Waterhemp plant response rating (waterhemp; 16 g ai/ha): 0; Plant response rating, Ryegrass, Italian (Italian ryegrass; [6]): 80; Plant response rating, Ryegrass, Italian (Italian ryegrass; [7]): 100; Plant response rating, Kochia (kochia [1]; [6]): 100; Plant response rating, Kochia (kochia [1]; [7]): 100; Nightshade plant response rating (nightshade; 16 g ai/ha): 0; Plant response rating, Kochia (kochia [2]; 125 g ai/ha): 100; Kochia plant response rating (kochia [2]): 100; Plant response rating, Beggarticks (hairy beggarticks; Preemergence, 62 g ai/ha): 35; Surinam Grass plant response rating (surinam grass; 16 g ai/ha): 0
N#Cc1cnn(-c2c(CF)cccc2Oc2ncc(F)cn2)c1 [Compound 151] | 75 | 98 | 100 | 0 | 0 | 20 | 35 | 30 | 75 | 90 | 0 | 25 | 60 | 95 | 65 | 65 | 100 | 0 | 35 | 100 | Plant response rating, Ryegrass, Italian (Italian ryegrass; [3]): 0; Ryegrass, Italian plant response rating (Italian ryegrass; [6]): 30; Plant response rating, Kochia (kochia [1]; [3]): 60; Kochia plant response rating (kochia [1]; [6]): 90; Plant response rating, Kochia (kochia [2]; [5]): 80; Plant response rating, Kochia (kochia [2]; 125 g ai/ha): 90; Beggarticks plant response rating (hairy beggarticks; 62 g ai/ha, preemergence): 95

From patent US9695155B2, “Herbicidal substituted pyrimidinyloxy benzene compounds” (E. I. DU PONT DE NEMOURS AND COMPANY, priority 2013, dated 2017)
